In patent US12479849B2, “EGFR inhibitors for the treatment of cancer” (Hoffmann-La Roche Inc., priority 2019, dated 2025):
Counter-ions that a name gives are not always drawn.

Molecular target: T1, EGFR TMLRCS (Homo sapiens, UniProt P00533, C797S/L858R/T790M)
T1 construct: host or cells: BaF3-TMLRCS (Ba/F3 cells, kept under puromycin selection)
Test: HTRF Phospho EGFR TMLRCS Assay (Cellular)
Format: cell-based
Conditions: BaF3-TMLRCS cell line, 4 hours incubation, Phospho-EGFR HTRF readout
Method: HTRF Phospho EGFR TMLRCS Assay (Cellular)
BaF3-TMLRCS cell line were obtained from Crownbio (San Diego, CA, USA). Cells were maintained at 37° C., 5% CO2 in RPMI ATCC (Gibco 31870)+2 mM Glutamine+0.5 μg/ml Puromycin supplemented with 10% fetal bovine serum (FBS) (Gibco).
Cells are transferred as above to Greiner Bio-One, Nr. 784-08 micro-titerplate at 20000 cells/well in 12.5 μl of growth medium/well after the plates had been pre-filled with 12.5 nl of DMSO solutions of the to be tested compounds (in dose response) or DMSO only. After spinning the plates at 300×g for 30 seconds the cells were incubated for 4 hours at 37 C, 5% CO2, 95% humidity. The cells were lysed by adding to the compound mix 4 μl/well of the supplemented lysis buffer (Cis-bio, Phospho-EGFR HTRF kit, 64EG1PEH), followed by incubation for 30 min at room temperature with shaking (400 rpm). The plates were then frozen and stored overnight at −80 C. On the next day and after thawing the plates, 4 μl of a mixture of anti-Phospho-EGFR Cryptate and of anti-Phospho-EGFR-d2 antibody solutions prepared in the supplied detection buffer was added to each well. The lidded plates were then incubated for 4 h at room temperature before reading the fluorescence emission at 616 and 665 nm using an Envision reader (Perkin Elmer). Data was analyzed in similar fashion as above using the normalized ratio of the 665 to 616 signals multiplied by 10000.

Compound	IC50 [nM]
O=C(Nc1nccs1)C(c1ncn2c1C[C@@H](F)C2)n1cc2c(Cl)cc(-c3ccc(CCCN4CCC(O)CC4)cc3)c(Cl)c2n1 (mixture of isomers) [Example 57, rac-2-(4,7-Dichloro-6-(4-(3-(4-hydroxypiperidin-1-yl)propyl)phenyl)-2H-indazol-2-yl)-2-((R)-6-fluoro-6,7-dihydro-5H-pyrrolo[1,2-c]imidazol-1-yl)-N-(thiazol-2-yl)acetamide]	7
CN(Cc1ccc(-c2cc(Cl)c3cn(C(C(=O)Nc4nccs4)c4ncn5c4C[C@@H](F)C5)nc3c2Cl)cc1)C1CCC(O)CC1 (mixture of isomers) [Example 94, rac-2-(4,7-Dichloro-6-(4-(((4-hydroxycyclohexyl)(methyl)amino)methyl)phenyl)-2H-indazol-2-yl)-2-((R)-6-fluoro-6,7-dihydro-5H-pyrrolo[1,2-c]imidazol-1-yl)-N-(thiazol-2-yl)acetamide]	4
O=C(Nc1nccs1)C(c1ncn2c1C[C@@H](F)C2)n1cc2c(Cl)cc(-c3ccc(C4CCNCC4)cc3)c(Cl)c2n1 (mixture of isomers) [Example 30, 2-[4,7-Dichloro-6-(4-piperidin-4-ylphenyl)indazol-2-yl]-2-[rac-(6R)-6-fluoro-6,7-dihydro-5H-pyrrolo[1,2-c]imidazol-1-yl]-N-(1,3-thiazol-2-yl)acetamide hydrochloride]	33
O=C(Nc1nccs1)C(c1ncn2c1C[C@@H](F)C2)n1cc2c(Cl)cc(-c3ccc(CCN4CCC(CO)C4)cc3)c(Cl)c2n1 (mixture of isomers) [Example 52, rac-2-(4,7-Dichloro-6-(4-(2-(3-(hydroxymethyl)pyrrolidin-1-yl)ethyl)phenyl)-2H-indazol-2-yl)-2-((R)-6-fluoro-6,7-dihydro-5H-pyrrolo[1,2-c]imidazol-1-yl)-N-(thiazol-2-yl)acetamide]	6
CC(CCO)N1CCC(Oc2ccc(-c3cc(Cl)c4cn(C(C(=O)Nc5nccs5)c5ncn6c5C[C@@H](F)C6)nc4c3Cl)cc2)CC1 (mixture of isomers) [Example 86, 2-[4,7-Dichloro-6-[4-[[1-(3-hydroxy-1-methyl-propyl)-4-piperidyl]oxy]phenyl]indazol-2-yl]-2-[rac-(6R)-6-fluoro-6,7-dihydro-5H-pyrrolo[1,2-c]imidazol-1-yl]-N-thiazol-2-yl-acetamide]	6
O=C(Nc1nccs1)C(c1ncn2c1C[C@@H](F)C2)n1cc2c(Cl)cc(-c3ccc(CN4CCC(O)CC4)cc3)c(Cl)c2n1 (mixture of isomers) [Example 58, rac-2-(4,7-Dichloro-6-(4-((4-hydroxypiperidin-1-yl)methyl)phenyl)-2H-indazol-2-yl)-2-((R)-6-fluoro-6,7-dihydro-5H-pyrrolo[1,2-c]imidazol-1-yl)-N-(thiazol-2-yl)acetamide]	5
CCN(C)CCc1ccc(-c2cc(C)c3cn(C(C(=O)Nc4nccs4)c4ncn5c4C[C@@H](F)C5)nc3c2C)cc1 (some centres unmarked) [Example 123]	15
O=C(Nc1nccs1)C(c1ncn2c1C[C@@H](F)C2)n1cc2c(Cl)cc(-c3ccc(CN4CC5(COC5)C4)cc3)c(Cl)c2n1 (mixture of isomers) [Example 63, rac-2-(6-(4-((2-Oxa-6-azaspiro[3.3]heptan-6-yl)methyl)phenyl)-4,7-dichloro-2H-indazol-2-yl)-2-((R)-6-fluoro-6,7-dihydro-5H-pyrrolo[1,2-c]imidazol-1-yl)-N-(thiazol-2-yl)acetamide]	5
CCN1CCCC2(C1)CN(c1ccc(-c3cc(Cl)c4cn(C(C(=O)Nc5nccs5)c5ncn6c5C[C@@H](F)C6)nc4c3Cl)cc1)C2 (stereo partly drawn) [Example 73, 2-(4,7-Dichloro-6-(4-(6-ethyl-2,6-diazaspiro[3.5]nonan-2-yl)phenyl)-2H-indazol-2-yl)-2-((R)-6-fluoro-6,7-dihydro-5H-pyrrolo[1,2-c]imidazol-1-yl)-N-(thiazol-2-yl)acetamide]	10
CN1CCC(Oc2ccc(-c3cc(Cl)c4cn(C(C(=O)Nc5nccs5)c5ncn6c5C[C@@H](F)C6)nc4c3Cl)cc2)CC1 (stereo partly drawn) [Example 85, 2-(4,7-Dichloro-6-(4-((l-methylpiperidin-4-yl)oxy)phenyl)-2H-indazol-2-yl)-2-((R)-6-fluoro-6,7-dihydro-5H-pyrrolo[1,2-c]imidazol-1-yl)-N-(thiazol-2-yl)acetamide]	4
2-(4,7-Dichloro-6-(4-((3S,4S)-3-fluoro-1-(2-methoxyethyl)piperidin-4-yl)phenyl)-2H-indazol-2-yl)-2-((R)-6-fluoro-6,7-dihydro-5H-pyrrolo[1,2-c]imidazol-1-yl)-N-(thiazol-2-yl)acetamide OR 2-(4,7-dichloro-6-(4-((3R,4R)-3-fluoro-1-(2-methoxyethyl)piperidin-4-yl)phenyl)-2H-indazol-2-yl)-2-((R)-6-fluoro-6,7-dihydro-5H-pyrrolo[1,2-c]imidazol-1-yl)-N-(thiazol-2-yl)acetamide [Example 56]	13
CCN1CC[C@H](c2ccc(-c3cc(Cl)c4cn(C(C(=O)Nc5nccs5)c5ncn6c5C[C@@H](F)C6)nc4c3Cl)cc2)[C@@H](F)C1 (single isomer, unassigned) [Example 37]	10
COCCN1CCC(c2ccc(-c3cc(Cl)c4cn(C(C(=O)Nc5nccs5)c5ncn6c5C[C@@H](F)C6)nc4c3Cl)cc2)CC1 (stereo partly drawn) [Example 45, 2-(4,7-Dichloro-6-(4-(1-(2-methoxyethyl)piperidin-4-yl)phenyl)-2H-indazol-2-yl)-2-((R)-6-fluoro-6,7-dihydro-5H-pyrrolo[1,2-c]imidazol-1-yl)-N-(thiazol-2-yl)acetamide]	4
O=C(Nc1nccs1)C(c1ncn2c1C[C@@H](F)C2)n1cc2c(Cl)cc(-c3ccc(OCCN4CCC(CO)CC4)cc3)c(Cl)c2n1 (mixture of isomers) [Example 68, rac-2-(4,7-Dichloro-6-(4-(2-(4-(hydroxymethyl)piperidin-1-yl)ethoxy)phenyl)-2H-indazol-2-yl)-2-((R)-6-fluoro-6,7-dihydro-5H-pyrrolo[1,2-c]imidazol-1-yl)-N-(thiazol-2-yl)acetamide]	4
O=C(Nc1nccs1)C(c1ncn2c1C[C@@H](F)C2)n1cc2c(Cl)cc(-c3ccc(OCCN4CC5(CC(O)C5)C4)cc3)c(Cl)c2n1 (stereo partly drawn) [Example 88, 2-(4,7-Dichloro-6-(4-(2-(6-hydroxy-2-azaspiro[3.3]heptan-2-yl)ethoxy)phenyl)-2H-indazol-2-yl)-2-((R)-6-fluoro-6,7-dihydro-5H-pyrrolo[1,2-c]imidazol-1-yl)-N-(thiazol-2-yl)acetamide]	7
O=C(Nc1nccs1)C(c1ncn2c1C[C@@H](F)C2)n1cc2c(Cl)cc(-c3ccc(OCCN4CCCC4)cc3)c(Cl)c2n1 (stereo partly drawn) [Example 42, 2-(4,7-Dichloro-6-(4-(2-(pyrrolidin-1-yl)ethoxy)phenyl)-2H-indazol-2-yl)-2-((R)-6-fluoro-6,7-dihydro-5H-pyrrolo[1,2-c]imidazol-1-yl)-N-(thiazol-2-yl)acetamide]	12
O=C(Nc1nccs1)C(c1ncn2c1C[C@@H](F)C2)n1cc2c(Cl)cc(-c3ccc(CCN4CCC(CO)CC4)cc3)c(Cl)c2n1 (mixture of isomers) [Example 51, rac-2-(4,7-Dichloro-6-(4-(2-(4-(hydroxymethyl)piperidin-1-yl)ethyl)phenyl)-2H-indazol-2-yl)-2-((R)-6-fluoro-6,7-dihydro-5H-pyrrolo[1,2-c]imidazol-1-yl)-N-(thiazol-2-yl)acetamide]	10
